US10689343B2, “Inhibitors of tryptophan 2,3-dioxygenase” (NETHERLANDS TRANSLATIONAL RESEARCH CENTER B.V., priority 2016, dated 2020)
Where “and” joins values, the source holds several entries; their conditions need not be identical. Equal entries are not always repeated. Where two headings read alike, the source gives them in different places.

Tests used:
[1] = mice treated with LM10; cited from earlier work
[2] = molecular target: T1, TDO expressed in mouse tumor cells (Mus musculus, UniProt P48776); conditions: immunocompetent mice; cited from earlier work
T1 construct: host or cells: mouse tumor cells

CYP2D6 [3] = molecular target: T2, CYP2D6 (Homo sapiens, UniProt P10635)
CYP3A4 [4] = molecular target: T3, CYP3A4 (Homo sapiens, UniProt P08684)
From the text: (§1) To determine the inhibitory potency of compounds on CYP3A4 enzyme, the P450-Glo CYP3A4 luciferin isopropylacetal (Luc-IP) assay was used (Promega, Madison, Wis., USA, Cat. No. V9920). The assay makes use of a luminogenic isopropylacetal (IPA) substrate that is a derivative from beetle luciferin, a substrate of luciferase enzymes. The IPA substrate is converted by CYP3A4 to luciferin, which in turn reacts with luciferase to produce an amount of light that is directly proportional to the activity of CYP3A4. Compounds were serially diluted in DMSO and finally in 400 mM K2HPO4, pH 7.4. 5 μl of compound solution and 5 μl of CYP3A4/substrate solution were combined in the well of a white 384-well Optiplate (Perkin Elmer). The DMSO concentration in the assay was 0.1%. After incubation for 10 minutes at room temperature in the dark, 10 μl of NADPH regeneration system was added and incubation was continued for 10 min. Then, 20 μl of Luciferin Detection Reagent was added to stop the reaction, and incubation was continued for another 20 min. Luminescence was measured on an Envision multimode reader and IC50 values were calculated using XLfit™. […] Instead of in a 96-well plate, the assay was performed in 384-well white Perkin Elmer Optiplate (cat. no. 6007290).

CYP3A4 [5] = molecular target: T3, CYP3A4; experiment: P450-Glo CYP3A4 luciferin isopropylacetal (Luc-IP) assay
From the text: as §1

Recombinant TDO = molecular target: T4, Recombinant TDO (Homo sapiens, UniProt P48775); experiment: Biochemical assay for TDO (NFK GreenScreen); conditions: 50 nM TDO, 200 μM L-tryptophan
T4 construct: Recombinant TDO (Seegers, N., et al.) and all other assay components were diluted in TDO reaction buffer
Summary of the method: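 Recombinant human TDO (50 nM) preincubated with compound 60 min at room temperature in 100 mM NaH2PO4 pH 7.0, 0.02% Tween-20, with ascorbic acid. Reaction then run 15 min with 200 μM L-tryptophan (final), 0.3% DMSO. NFK product detected by NFK Green fluorescence after 3 h at 37° C; IC50 derived.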

[6] = molecular target: T5, TDO in SW48 colorectal carcinoma cells (Homo sapiens, UniProt P48775); experiment: Cell-based assay for TDO in SW48 colorectal carcinoma cells (NFK GreenScreen); conditions: 18 hours with L-tryptophan, read-out: IC50 on TDO in cells
T5 construct: Endogenous expression of TDO has been determined in a variety of cancer cell lines; host or cells: SW48 colorectal carcinoma cells

CYP2D6 [7] = molecular target: T2, CYP2D6; experiment: P450-Glo CYP2D6 Luc-IP assay

T2 sequence (P10635 whole entry): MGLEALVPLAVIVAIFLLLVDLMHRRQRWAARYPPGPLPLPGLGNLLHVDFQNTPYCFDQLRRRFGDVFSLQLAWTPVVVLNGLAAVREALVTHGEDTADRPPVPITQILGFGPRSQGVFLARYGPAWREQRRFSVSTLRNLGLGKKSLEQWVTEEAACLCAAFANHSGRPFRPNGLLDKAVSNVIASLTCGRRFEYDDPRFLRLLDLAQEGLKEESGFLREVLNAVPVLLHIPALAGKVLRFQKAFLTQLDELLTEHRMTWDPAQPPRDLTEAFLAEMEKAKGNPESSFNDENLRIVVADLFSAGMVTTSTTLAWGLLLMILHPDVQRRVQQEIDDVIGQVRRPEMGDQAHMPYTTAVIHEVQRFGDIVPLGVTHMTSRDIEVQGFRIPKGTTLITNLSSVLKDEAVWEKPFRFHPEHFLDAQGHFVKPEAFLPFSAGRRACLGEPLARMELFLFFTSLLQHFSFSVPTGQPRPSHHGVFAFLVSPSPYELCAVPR
T4 sequence (P48775 whole entry): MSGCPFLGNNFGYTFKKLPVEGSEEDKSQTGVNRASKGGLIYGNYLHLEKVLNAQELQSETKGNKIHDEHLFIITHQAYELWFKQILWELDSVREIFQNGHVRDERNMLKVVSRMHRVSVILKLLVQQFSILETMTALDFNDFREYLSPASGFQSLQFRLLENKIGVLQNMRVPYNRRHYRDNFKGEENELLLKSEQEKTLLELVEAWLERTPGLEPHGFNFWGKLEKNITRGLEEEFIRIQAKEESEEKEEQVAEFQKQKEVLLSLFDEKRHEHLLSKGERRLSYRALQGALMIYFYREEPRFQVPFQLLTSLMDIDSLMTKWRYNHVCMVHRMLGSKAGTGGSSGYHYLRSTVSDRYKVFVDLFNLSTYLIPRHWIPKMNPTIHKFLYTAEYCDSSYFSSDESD
T5 sequence (P48775 whole entry): as above
T3 sequence (P08684 whole entry): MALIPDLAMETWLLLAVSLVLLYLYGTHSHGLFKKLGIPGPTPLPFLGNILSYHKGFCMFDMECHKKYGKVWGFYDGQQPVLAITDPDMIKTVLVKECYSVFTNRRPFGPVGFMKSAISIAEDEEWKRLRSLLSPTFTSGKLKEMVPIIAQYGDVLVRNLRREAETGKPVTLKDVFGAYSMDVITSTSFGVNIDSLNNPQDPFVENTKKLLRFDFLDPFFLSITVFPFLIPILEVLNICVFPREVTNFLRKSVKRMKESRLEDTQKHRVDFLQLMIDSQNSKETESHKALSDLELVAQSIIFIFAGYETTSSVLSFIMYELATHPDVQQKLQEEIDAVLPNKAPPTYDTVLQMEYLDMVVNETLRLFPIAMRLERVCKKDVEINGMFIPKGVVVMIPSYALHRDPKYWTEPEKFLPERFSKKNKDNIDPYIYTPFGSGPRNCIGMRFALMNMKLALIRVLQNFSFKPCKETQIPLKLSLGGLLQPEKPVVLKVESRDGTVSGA
T1 sequence (P48776 whole entry): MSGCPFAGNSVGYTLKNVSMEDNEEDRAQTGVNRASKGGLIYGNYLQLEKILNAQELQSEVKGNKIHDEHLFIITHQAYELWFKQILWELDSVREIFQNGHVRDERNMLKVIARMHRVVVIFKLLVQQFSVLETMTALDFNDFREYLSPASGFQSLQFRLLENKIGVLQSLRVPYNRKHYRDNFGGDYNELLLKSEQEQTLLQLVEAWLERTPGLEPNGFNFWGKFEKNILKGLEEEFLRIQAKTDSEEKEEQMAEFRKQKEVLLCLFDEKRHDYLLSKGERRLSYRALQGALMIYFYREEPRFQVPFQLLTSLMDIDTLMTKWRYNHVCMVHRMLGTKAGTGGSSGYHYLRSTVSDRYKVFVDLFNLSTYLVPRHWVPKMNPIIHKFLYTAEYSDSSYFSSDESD

Fc1ccc2c(/C=C/c3nn[nH]n3)c[nH]c2c1 [LM10]
Signs of toxicity in the liver or any other organs [1]: did not show any signs of toxicity
Effect on TDO-mediated prevention of tumor cell rejection [2]: reverted

N-[3-(dimethylamino)propyl]-4-(6-fluoro-1H-indol-3-yl)benzamide [Example 8]
IC50 (CYP2D6 [3]): > 10 µM
IC50 (CYP3A4 [4]): > 10 µM

N-(2-diethylaminoethyl)-4-(6-fluoro-1H-indol-3-yl)benzamide [Example 81]
IC50 (CYP2D6 [3]): > 10 µM
IC50 (CYP3A4 [4]): 5 to 10 µM

N-cyclopropyl-4-(6-fluoro-1H-indol-3-yl)benzamide [Example 86]
IC50 (CYP2D6 [3]): > 10 µM
IC50 (CYP3A4 [4]): > 10 µM

N-(3,3-difluorocyclobutyl)-4-(6-fluoro-1H-indol-3-yl)benzamide [Example 114]
IC50 (CYP2D6 [3]): > 10 µM
IC50 (CYP3A4 [4]): > 10 µM

CC(C)(O)CNC(=O)c1ccc(-c2c[nH]c3cc(F)ccc23)cc1 [Example 13, 4-(6-Fluoro-1H-indol-3-yl)-N-(2-hydroxy-2-methyl-propyl)benzamide]
IC50 (CYP3A4 [5]): > 10 µM
IC50 (Recombinant TDO): < 1 µM
IC50 [6]: ≤ 0.5 µM and 0.2 to 0.5 µM
IC50 (CYP2D6 [7]): > 10 µM

O=C(NCCC(F)(F)F)c1ccc(-c2c[nH]c3cc(F)ccc23)cc1 [Example 134, 4-(6-Fluoro-1H-indol-3-yl)-N-(3,3,3-trifluoropropyl)benzamide]
IC50 (CYP3A4 [5]): > 10 µM
IC50 (Recombinant TDO): 1 to 5 µM
IC50 [6]: ≤ 0.2 µM
IC50 (CYP2D6 [7]): > 10 µM

O=C(N[C@H]1CCCNC1)c1ccc(-c2c[nH]c3cc(F)ccc23)cc1F [Example 125, 2-Fluoro-4-(6-fluoro-1H-indol-3-yl)-N-[(3S)-3-piperidyl]benzamide]
IC50 (CYP3A4 [5]): 5 to 10 µM
IC50 (Recombinant TDO): < 1 µM
IC50 [6]: ≤ 0.2 µM
IC50 (CYP2D6 [7]): > 10 µM

O=C(NCCN1CCCC1)c1ccc(-c2c[nH]c3cc(F)ccc23)cc1Cl [Example 70, 2-Chloro-4-(6-fluoro-1H-indol-3-yl)-N-(2-pyrrolidin-1-ylethyl)benzamide]
IC50 (CYP3A4 [5]): 5 to 10 µM
IC50 (Recombinant TDO): < 1 µM
IC50 [6]: ≤ 0.2 µM
IC50 (CYP2D6 [7]): > 10 µM

CO[C@H]1CNCC[C@H]1NC(=O)c1ccc(-c2c[nH]c3cc(F)ccc23)cc1 [Example 43, 4-(6-Fluoro-1H-indol-3-yl)-N-[(3S,4R)-3-methoxy-4-piperidyl]benzamide]
IC50 (CYP3A4 [5]): 5 to 10 µM
IC50 (Recombinant TDO): < 1 µM
IC50 [6]: ≤ 0.5 µM and 0.2 to 0.5 µM
IC50 (CYP2D6 [7]): > 10 µM

CCN(CC)CC(C)NC(=O)c1ccc(-c2c[nH]c3cc(F)ccc23)cc1OC (stereo not shown) [Example 79, N-[2-(diethylamino)-1-methyl-ethyl]-4-(6-fluoro-1H-indol-3-yl)-2-methoxy-benzamide]
IC50 (CYP3A4 [5]): > 10 µM
IC50 (Recombinant TDO): < 1 µM
IC50 [6]: ≤ 0.2 µM
IC50 (CYP2D6 [7]): > 10 µM

CN(C)CCCNC(=O)c1ccc(-c2c[nH]c3cc(F)ccc23)cc1F [Example 124, N-[3-(dimethylamino)propyl]-2-fluoro-4-(6-fluoro-1H-indol-3-yl)benzamide]
IC50 (CYP3A4 [5]): 5 to 10 µM
IC50 (Recombinant TDO): < 1 µM
IC50 [6]: ≤ 0.2 µM
IC50 (CYP2D6 [7]): > 10 µM

O=C(NC1CCOCC1)c1ccc(-c2c[nH]c3cc(F)ccc23)cc1 [Example 44, 4-(6-Fluoro-1H-indol-3-yl)-N-tetrahydropyran-4-yl-benzamide]
IC50 (CYP3A4 [5]): > 10 µM
IC50 (Recombinant TDO): < 1 µM
IC50 [6]: ≤ 0.5 µM and 0.2 to 0.5 µM
IC50 (CYP2D6 [7]): > 10 µM

O=C(NCCN1C[C@@H](O)[C@H](O)C1)c1ccc(-c2c[nH]c3cc(F)ccc23)cc1Cl [Example 116, 2-Chloro-N-[2-[(3R,4R)-3,4-dihydroxypyrrolidin-1-yl]ethyl]-4-(6-fluoro-1H-indol-3-yl)benzamide]
IC50 (CYP3A4 [5]): > 10 µM
IC50 (Recombinant TDO): < 1 µM
IC50 [6]: ≤ 0.5 µM and 0.2 to 0.5 µM
IC50 (CYP2D6 [7]): > 10 µM
